“Also recorded” adds a separate entry of the source.
Experiments:
[1] = system: 3T3-L1 adipocytes; experiment: 6-NBDG uptake screening in 3T3-L1 adipocytes, 96-well, fluorescent microplate reader; assay type: cell-based, murine; conditions: for effect of GLUT inhibitors (4,6-EDG, cytochalasin B) on compound-induced NBDG uptake: with 4,6-EDG (50 mM) or cytochalasin B; for NBDG uptake in adipocytes on re-testing of purified compounds: 250 nM-20 μM, compared with insulin and zinc sulfate; for effect on insulin-stimulated 6-NBDG uptake: 3 h pre-treatment with inhibitors
Description: 3T3-L1 murine fibroblasts were maintained in proliferation media, consisting of DMEM supplemented with 10% FBS, 50 units/mL penicillin and 50 μg/mL streptomycin. 3T3-L1 fibroblasts were induced to differentiate into adipocytes as follows: 48 h postconfluent cells (designated day 0) were cultured in DMEM supplemented 10% FBS, 0.5 mM 3-isobutyl-1-methyl-xanthine, 2 μg/ml dexamethasone, 1 μg/ml insulin, 50 units/mL penicillin and 50 μg/mL streptomycin for 2 days. Every 2 days thereafter, the cells were incubated with fresh DMEM supplemented with 10% FBS and 1 μg/ml insulin. 3T3-L1 adipocytes were used for experiments 8 days after the induction of differentiation.
(§1) Three cell lines were chosen to test if NBDG can be used to detect insulin-stimulated glucose uptake in a 96 well plate culture format, which is more suitable for cell-based screening to identify novel insulin mimetic compounds. The cell lines chosen were Huh7 hepatocytes, C2C12 myoblasts and 3T3-L1 pre-adipocytes, which represent the major body tissue types that are sensitive to the action of insulin (liver, muscle and fat). 10^4 cells/well were seeded in a black, 96 well tissue culture plate (BD Falcon, NJ, USA). C2C12 myoblasts and 3T3-L1 adipocytes were induced to undergo differentiation into myotubes and adipocytes, respectively, to compare the NDBG signal in proliferating and differentiated cells. NBDG uptake was measured following treatment with 10 nM or 100 nM insulin, and 1 μM or 10 μM rosiglitazone (an insulin-sensitizing agent), using a fluorescent microplate reader (SpectraMAX GeminiXS and SoftMax Pro V5 software, Molecular Devices, CA, USA). Cells were cultured in serum-free low glucose culture media for 3 h before the addition of insulin.
To test the NBDG-based screening system, a combinatorial chemical library of 576 triazine-based small molecules was screened at a concentration of 5 μM. The combinatorial library was provided by Professor Young-Tae Chang, Department of Chemistry, National University of Singapore.
To test if this screening protocol could detect new insulin mimetic compounds, a combinatorial chemical library of 576 triazine-based small molecules was screened.

[2] = system: 3T3-L1 adipocytes and pre-adipocytes; experiment: Fluorescent microscope analysis of NBDG uptake in mixed cultures of adipocytes and pre-adipocytes; assay type: cell-based, murine; conditions: 10 μM compound; adipocytes vs pre-adipocytes (fibroblast-like)
Excerpt: (§2) Error=SD. *=P<0.05 compared to 3T3-L1 adipocytes in the same treatment group. […] Data is representative of three independent experiments.

[3] = system: 3T3-L1 adipocytes; experiment: Detection of apoptosis (Apo-TRACE staining, microplate quantification); assay type: cell-based, murine; conditions: 5 μM, 24 hrs
Description: 3T3-L1 pre-adipocytes were cultured to confluence in 24-well plates and induced to differentiate into adipocytes. The induction of apoptosis was detected using the Apo-TRACE™ Apoptotic Cell Staining Kit (Sigma-Aldrich, SL, USA), which employs a fluorescent compound that responds to alterations in plasma membrane potential and phospholipid scrambling, which are hallmarks of apoptotic cells. Apoptotic cells were visualized by microscopy under UV illumination (Olympus IX81, Japan) equipped with MetaMorph 7.5 image capture software (Molecular Devices, CA, USA)). Images were processed with Photoshop CS4 software (Adobe Systems Incorporated, CA, USA). Apoptosis was quantified by fluorescent microplate reader analysis of cell lysate.

[4] = system: insulin resistant 3T3-L1 adipocytes; experiment: NBDG uptake in adipocytes rendered insulin resistant with TNF-α; assay type: cell-based, murine
Excerpt: as §2

[5] = system: VCAM-1; experiment: VCAM-1 expression in HAEC exposed to hyperglycemia (Western blot); assay type: cell-based, human; conditions: 30 mM glucose 5 days; 24 hrs treatment with 5 μM
Description: (§3) HAEC were exposed to hyperglycemia (30 mM glucose) for days and treated with 5 μM compounds AP-III-a4 or AP-I-h7 or 100 nM insulin for 3 hrs prior to addition of THP-1 monocytes. […] Data is representative of three independent experiments. 5 mM glucose=normoglycemia; 30 mM glucose=hyperglycemia (5 days treatment); AP-III-a4=hyperglycemia (5 days treatment) and 24 hrs treatment with 5 μM AP-III-a4; AP-I-h7=hyperglycemia (5 days treatment) and 24 hrs treatment with […]; MLB=hyperglycemia (5 days treatment) and 48 hrs treatment with 50 μM magnesium lithospermate B.
Human aortic endothelial cells were supplied by Cambrex (NJ, USA) and cultured in EBM-2 growth media supplemented with the EGM-2 bullet kit. THP-1 human monocytic cells were cultured in RPMI-1640 medium supplemented with […] 2-mercaptoethanol, 10% fetal bovine serum and antibiotics. Cells were cultured in growth media containing 5 mM glucose for the normoglycemia condition or 30 mM glucose for the hyperglycemia condition.
Proteins were separated by 10% SDS-PAGE and transferred onto […] nitrocellulose (Bio-Rad, CA, USA). Densitometry was carried out using TINA 2.10e software (Catholic University Medical College (GmBH), Germany).

[6] = system: 3T3-L1 adipocytes; experiment: Commercial enzyme-based glucose content assay (Biovision); assay type: cell-based, murine; conditions: tested in triplicate
Description: For comparison and validation of our new screening based on NBDG uptake, we used a commercial, enzyme-based glucose assay provided by Biovision Inc., CA, USA. 3T3-L1 adipocytes were seeded at 5×10^4 cells/well in a 96-well culture plate. 24 h later, culture media was changed and adipocytes were cultured in serum-free low glucose DMEM for 3 h prior to drug treatment. Cells were lysed with 100 μL Cell Lytic M (Sigma-Aldrich, SL, USA) and 50 μL lysate was used for assay.

[7] = system: 3T3-L1 adipocytes; experiment: Epinephrine-stimulated free fatty acid release assay; assay type: cell-based, murine; conditions: for inhibition of epinephrine-stimulated free fatty acid release: 5 μM compound, 10 μM epinephrine
Description: Epinephrine-stimulated free fatty acid (FFA) release from adipocytes was measured using the Free Fatty Acid Quantification Kit (Biovision, CA, USA), following the method previously described^13. Confluent 3T3-L1 adipocytes in a 24 well plate were cultured for 3 h in serum-free culture media. Adipocytes were then treated with 10 μM epinephrine dissolved in saline to induce FFA […] release. Drug of interest was added 10 min before the addition of epinephrine. Cell lysate was collected and 50 μL of the organic phase was used for assay. Palmitic acid was used to generate the standard curve.

[8] = system: human aortic endothelial cells (HAEC); experiment: Monocyte-endothelial cell adhesion assay (THP-1 monocytes, hyperglycemia); assay type: cell-based; conditions: 30 mM glucose; 5 μM compound for 3 hrs before THP-1 monocytes
Description: as §3
Human aortic endothelial cells were supplied by Cambrex (NJ, USA) and cultured in EBM-2 growth media supplemented with the EGM-2 bullet kit. […]
The adhesion of mouse inflammatory peritoneal (IP) exudate macrophages to endothelial cell monlayers was carried out as previously described.^14 Briefly, endothelial cells were cultured to confluence in 6-well culture plates and treated with drug with or without high glucose (30 mM for 48 h) culture media. […] The unbound cells were washed three times with serum-free RPMI-1640 medium, and the total number of adherent cells was counted in four randomly selected optical fields per well (100× magnification; Olympus microscope CKX41, Japan; microscopic images were captured with a DigiEye 330 digital camera (Dewinter, India) and Biowizard 4.3 software (Dewinter, India)). […]

[9] = system: human aortic endothelial cells (HAEC); conditions: cited from earlier work
[10] = system: VCAM-1; conditions: cited from earlier work
[11] = system: 3T3-L1 adipocytes; experiment: 2-NBDG uptake in insulin-responsive cell lines, 96-well; assay type: cell-based, murine; conditions: 10 nM or 100 nM insulin, 30 min; compared to Huh7, C2C12 myoblasts/myotubes, 3T3-L1 pre-adipocytes
Description: as §1

[12] = system: 3T3-L1 adipocytes; experiment: Necrosis / cell death by trypan blue exclusion; assay type: cell-based; conditions: 24 h after treatment
Description: Necrosis was detected by the ability of cells to exclude the dye, trypan blue. 3T3-L1 adipocytes were cultured to confluence in 6-well plates and treated with drug. Adipocytes were then harvested by trpsinization and resuspended in 1 mL PBS. A 50 μL aliquot was taken and stained with an equal volume of 0.4% trypan blue solution (Sigma, SL, USA). Cells that could not exclude dye were classified as necrotic and quantified using a hemocytometer.

Molecule: O=S(=O)([O-])[O-].[Zn+2] [zinc sulfate, reference compound]
- effect of GLUT inhibitors (4,6-EDG, cytochalasin B) on compound-induced NBDG uptake [1]: reduced NBDG uptake

Molecule: CCCCNc1nc(NCCc2ccccc2)nc(Nc2ccc(CC(=O)NCCOCCOCCN)cc2)n1 [AP-I-h7]
- cell-type preference of NBDG uptake [2]: preferentially taken up in the adipocytes; also recorded: preferentially occurs in adipocytes rather than fibroblasts
- induction of apoptosis [3]: did not induce apoptosis
- sensitivity of compound-induced NBDG uptake to insulin resistance [4]: sensitive to the induction of insulin resistance
- NBDG uptake in adipocytes on re-testing of purified compounds [1]: can increase NBDG uptake; also recorded: promote NBDG uptake in adipocytes
- effect of GLUT inhibitors (4,6-EDG, cytochalasin B) on compound-induced NBDG uptake [1]: sensitive to exo- and endofacial inhibitors of GLUT
- VCAM-1 expression / upregulation in hyperglycemic conditions [5]: decreased VCAM-1 upregulation; also recorded: reduced the expression of VCAM-1
- cellular glucose content [6]: induced an increase in cellular glucose content
- concentration required to produce insulin mimetic activity in adipocytes [7]: 5 µM
- inhibition of epinephrine-stimulated free fatty acid release [7]: could inhibit epinephrine-stimulated free fatty acid release; also recorded: inhibit 10 μM epinephrine-mediated FFA release
- monocyte adhesion in hyperglycemic conditions [8]: decreased monocyte adhesion; also recorded: reduced monocyte adhesion

Molecule: CC1OC[C@H]2O[C@H](O)[C@H](O)[C@@H](O)[C@@H]2O1 (stereo partly drawn) [4,6-EDG, 4,6-ethylidine-D-glucose, reference compound]
- effect on insulin-stimulated 6-NBDG uptake ([1]; 100 nM insulin): reduced insulin-stimulated uptake of 6-NBDG; also recorded: inhibited

Molecule: NCCOCCOCCNC(=O)Cc1ccc(Nc2nc(NCc3ccc(F)cc3)nc(NCC3CCCCC3)n2)cc1 [AP-III-a4]
- cell-type preference of NBDG uptake [2]: preferentially taken up in the adipocytes; also recorded: preferentially occurs in adipocytes rather than fibroblasts
- induction of apoptosis [3]: did not induce apoptosis
- sensitivity of compound-induced NBDG uptake to insulin resistance [4]: sensitive to the induction of insulin resistance
- NBDG uptake in adipocytes on re-testing of purified compounds [1]: can increase NBDG uptake; also recorded: promote NBDG uptake in adipocytes
- effect of GLUT inhibitors (4,6-EDG, cytochalasin B) on compound-induced NBDG uptake [1]: sensitive to exo- and endofacial inhibitors of GLUT
- VCAM-1 expression / upregulation in hyperglycemic conditions [5]: decreased VCAM-1 upregulation; also recorded: reduced the expression of VCAM-1
- cellular glucose content [6]: induced an increase in cellular glucose content
- concentration required to produce insulin mimetic activity in adipocytes [7]: 5 µM
- inhibition of epinephrine-stimulated free fatty acid release [7]: could inhibit epinephrine-stimulated free fatty acid release; also recorded: inhibit 10 μM epinephrine-mediated FFA release
- monocyte adhesion in hyperglycemic conditions [8]: decreased monocyte adhesion; also recorded: reduced monocyte adhesion

Molecule: C=C1[C@@H](C)[C@H]2[C@H](Cc3ccccc3)NC(=O)[C@]23OC(=O)/C=C/[C@H](O)CCC[C@@H](C)C/C=C/[C@H]3[C@@H]1O [cytochalasin B, reference compound]
- effect on insulin-stimulated 6-NBDG uptake ([1]; 100 nM insulin): reduced insulin-stimulated uptake of 6-NBDG; also recorded: inhibited

Molecule: insulin: Insulin from bovine pancreas
- sensitivity of 6-NBDG uptake in adipocytes to the agent ([1]; 1 μM rosiglitazone, 100 nM insulin): sensitive
- effect on monocyte-endothelial adhesion (literature) [9]: no inhibitory effect on monocyte-endothelial adhesion
- cellular glucose content [6]: induced an increase in cellular glucose content
- effect on adhesion molecule expression in endothelial cells (literature) [10]: not to inhibit adhesion molecule expression
- 2-NBDG uptake after insulin treatment [11]: largest increase in 2-NBDG uptake

Molecule: NCCOCCOCCNC(=O)Cc1ccc(Nc2nc(NCC3CCCCC3)nc(N3CCCCC3)n2)cc1 [AP-IV-e4]
- induction of apoptosis [3]: induced apoptosis
- NBDG uptake in adipocytes on re-testing of purified compounds [1]: can increase NBDG uptake; also recorded: promote NBDG uptake in adipocytes
- effect of GLUT inhibitors (4,6-EDG, cytochalasin B) on compound-induced NBDG uptake [1]: sensitive to exo- and endofacial inhibitors of GLUT
- induction of cell death (trypan blue exclusion) [12]: induced cell death

Molecule: CCCCNc1nc(Nc2ccc(CC(=O)NCCOCCOCCN)cc2)nc(N2CCCCC2)n1 [AP-IV-e3]
- induction of apoptosis [3]: induced apoptosis
- NBDG uptake in adipocytes on re-testing of purified compounds [1]: can increase NBDG uptake; also recorded: promote NBDG uptake in adipocytes
- effect of GLUT inhibitors (4,6-EDG, cytochalasin B) on compound-induced NBDG uptake [1]: sensitive to exo- and endofacial inhibitors of GLUT
- induction of cell death (trypan blue exclusion) [12]: induced cell death

From patent US9254290B2, “Method for screening diabetes treating agent” (GWANGJU INSTITUTE OF SCIENCE AND TECHNOLOGY, priority 2010, dated 2016)
